Measured values as given in US20200339511A1, “Substituted indoline derivatives as dengue viral replication inhibitors” (priority 2016, published 2020).

How the values were obtained:
Vero cells = conditions: African green monkey
DENV-2 16681 strain = assay: DENV-2 antiviral assay (eGFP-labeled virus in Vero cells); type: cell-based, Dengue virus; conditions: DENV-2 16681 eGFP, MOI 0.5, 3 days
Method: The antiviral activity of all the compounds of the invention was tested the against DENV-2 16681 strain which was labeled with enhanced green fluorescent protein (eGPF). The culture medium consists of minimal essential medium supplemented with 2% of heat-inactivated fetal calf serum, 0.04% gentamycin (50 mg/mL) and 2 mM of L-glutamine. Vero cells, obtained from ECACC, were suspended in culture medium and 25 μL was added to 384-well plates (2500 cells/well), which already contain the antiviral compounds. Typically, these plates contain a 5-fold serial dilution of 9 dilution steps of the test compound at 200 times the final concentration in 100% DMSO (200 nL). […] Finally, each plate contains wells which are assigned as virus controls (containing cells and virus in the absence of compound), cell controls (containing cells in the absence of virus and compound) and medium controls (containing medium in the absence of cells, virus and compounds). To the wells assigned as medium control, 25 μL of culture medium was added instead of Vero cells. Once the cells were added to the plates, the plates were incubated for 30 minutes at room temperature to allow the cells to distribute evenly within the wells. Next, the plates were incubated in a fully humidified incubator (37° C., 5% CO2) until the next day. Then, DENV-2 strain 16681, labeled with eGFP, was added at a multiplicity of infection (MOI) of 0.5. Therefore, 15 μL of virus suspension was added to all the wells containing test compound and to the wells assigned as virus control. In parallel, 15 μL of culture medium was added to the medium and cell controls. Next, the plates were incubated for 3 days in a fully humidified incubator (37° C., 5% CO2). At the day of the read out, the eGFP fluorescence was measured using an automated fluorescence microscope at 488 nm (blue laser). Using an in-house LIMS system, inhibition dose response curves for each compound were calculated and the half maximal effective concentration (EC50) was determined. Therefore, the percent inhibition (I) for every test concentration is calculated using the following formula: I=100*(ST-SCC)/(SVC-SCC), ST, SCC and SVC are the amount of eGFP signal in the test compound, cell control and virus control wells, respectively. The EC50 represents the concentration of a compound at which the virus replication is inhibited with 50%, as measured by a 50% reduction of the eGFP fluorescent intensity compared to the virus control. The EC50 is calculated using linear interpolation (Table 1).

in vitro = conditions: African green monkey
[1] = Dengue virus, DENV2, Vero, 72 h

COc1cc(NC(C(=O)N2CCc3cc(F)c(C(F)(F)F)cc32)c2ccc(Cl)cc2)cc(OCCO)c1 (single isomer, unassigned) [Compound 12B, 2-(4-chlorophenyl)-1-(5-fluoro-6-(trifluoromethyl)indolin-1-yl)-2-((3-(2-hydroxyethoxy)-5-methoxyphenyl)amino)ethanone]
CC50 (Vero cells): 11000 nM
EC50 (DENV-2 16681 strain): 400 nM

COc1cc(NC(C(=O)N2CCc3ccc(C(F)(F)F)cc32)c2ccc(Cl)cc2OC)cc(OCCO)c1 (single isomer, unassigned) [Compound 1A, 2-(4-chloro-2-methoxyphenyl)-2-((3-(2-hydroxyethoxy)-5-methoxyphenyl)amino)-1-(6-(trifluoromethyl)indolin-1-yl)ethanone]
CC50 (in vitro): 13000 nM
EC50 (DENV-2 16681 strain): 220 nM

COc1cc(NC(C(=O)N2CCc3ccc(OC(F)(F)F)cc32)c2ccc(Cl)cc2F)cc(OCCO)c1 (racemic) [Compound 6, 2-(4-chloro-2-fluorophenyl)-2-((3-(2-hydroxyethoxy)-5-methoxyphenyl)amino)-1-(6-(trifluoromethoxy)indolin-1-yl)ethanone]
CC50 (in vitro): 14000 nM
EC50 (DENV-2 16681 strain; [1]): 6.2 nM

COc1cc(NC(C(=O)N2CCc3ccc(C(F)(F)F)cc32)c2ccc(Cl)cc2F)cc(OCCO)c1 (single isomer, unassigned) [Compound 2A, 2-(4-chloro-2-fluorophenyl)-2-((3-(2-hydroxyethoxy)-5-methoxyphenyl)amino)-1-(6-(trifluoromethyl)indolin-1-yl)ethanone]
CC50 (in vitro): 18000 nM
EC50 (DENV-2 16681 strain): 320 nM

COc1cc(NC(C(=O)N2CCc3ccc(OC(F)(F)F)cc32)c2ccc(Cl)cc2)cc(OCCO)c1 (single isomer, unassigned) [Compound 3B, 2-(4-chlorophenyl)-2-((3-(2-hydroxyethoxy)-5-methoxyphenyl)amino)-1-(6-(trifluoromethoxy)indolin-1-yl)ethanone]
CC50 (Vero cells): 12000 nM
EC50 (DENV-2 16681 strain): 590 nM

COc1cc(NC(C(=O)N2CCc3c(C)cc(OC(F)(F)F)cc32)c2ccc(Cl)cc2)cc(OCCO)c1 (single isomer, unassigned) [Compound 9A, 2-(4-chlorophenyl)-2-((3-(2-hydroxyethoxy)-5-methoxy-phenyl)amino)-1-(4-methyl-6-(trifluoromethoxy)indolin-1-yl)ethanone]
CC50 (in vitro): 13000 nM
EC50 (DENV-2 16681 strain): 1000 nM

COc1cc(NC(C(=O)N2CCc3c(C)cc(C(F)(F)F)cc32)c2ccc(Cl)cc2)cc(OCCO)c1 (single isomer, unassigned) [Compound 10A, 2-(4-chlorophenyl)-2-((3-(2-hydroxyethoxy)-5-methoxy-phenyl)amino)-1-(4-methyl-6-(trifluoromethyl)indolin-1-yl)ethanone]
CC50 (in vitro): 11000 nM
EC50 (DENV-2 16681 strain): 1300 nM

COc1cc(NC(C(=O)N2CCc3ccc(C(F)(F)F)cc32)c2ccc(Cl)cc2F)cc(OCCO)c1 (racemic) [Compound 2, 2-(4-chloro-2-fluorophenyl)-2-((3-(2-hydroxyethoxy)-5-methoxyphenyl)amino)-1-(6-(trifluoromethyl)indolin-1-yl)ethanone]
CC50 (in vitro): 12000 nM
EC50 (DENV-2 16681 strain; [1]): 8.9 nM

COc1cc(NC(C(=O)N2CCc3cc(OC)c(C(F)(F)F)cc32)c2ccc(Cl)cc2F)cc(OCCO)c1 (single isomer, unassigned) [Compound 8A, 2-(4-chloro-2-fluorophenyl)-2-((3-(2-hydroxyethoxy)-5-methoxyphenyl)amino)-1-(5-methoxy-6-(trifluoromethyl)indolin-1-yl)ethanone]
CC50 (Vero cells): > 25000 nM
EC50 (DENV-2 16681 strain): 460 nM

COc1cc(NC(C(=O)N2CCc3ccc(OC(F)(F)F)cc32)c2ccc(Cl)cc2OC)cc(OCCO)c1 (single isomer, unassigned) [Compound 5B, 2-(4-chloro-2-methoxyphenyl)-2-((3-(2-hydroxyethoxy)-5-methoxyphenyl)amino)-1-(6-(trifluoromethoxy)indolin-1-yl)ethanone]
CC50 (Vero cells): 14000 nM
EC50 (DENV-2 16681 strain): 760 nM

COc1cc(NC(C(=O)N2CCc3cc(OC)c(C(F)(F)F)cc32)c2ccc(Cl)cc2F)cc(OCCO)c1 (racemic) [Compound 8, 2-(4-chloro-2-fluorophenyl)-2-((3-(2-hydroxyethoxy)-5-methoxyphenyl)amino)-1-(5-methoxy-6-(trifluoromethyl)indolin-1-yl)ethanone]
CC50 (in vitro): > 25000 nM
EC50 (DENV-2 16681 strain; [1]): 4.4 nM

COc1cc(NC(C(=O)N2CCc3cc(OC)c(C(F)(F)F)cc32)c2ccc(Cl)cc2)cc(OCCO)c1 (racemic) [Compound 7, 2-(4-chlorophenyl)-2-((3-(2-hydroxyethoxy)-5-methoxyphenyl)amino)-1-(5-methoxy-6-(trifluoromethyl)indolin-1-yl)ethanone]
CC50 (in vitro): 11000 nM
EC50 (DENV-2 16681 strain; [1]): 2.3 nM

COc1cc(NC(C(=O)N2CCc3cc(OC)c(C(F)(F)F)cc32)c2ccc(Cl)cc2)cc(OCCO)c1 (single isomer, unassigned) [Compound 7A, 2-(4-chlorophenyl)-2-((3-(2-hydroxyethoxy)-5-methoxyphenyl)amino)-1-(5-methoxy-6-(trifluoromethyl)indolin-1-yl)ethanone]
CC50 (in vitro): 21000 nM
EC50 (DENV-2 16681 strain): 790 nM

COc1cc(NC(C(=O)N2CCc3ccc(OC(F)(F)F)cc32)c2ccc(Cl)cc2F)cc(OCCO)c1 (single isomer, unassigned) [Compound 6A, 2-(4-chloro-2-fluorophenyl)-2-((3-(2-hydroxyethoxy)-5-methoxyphenyl)amino)-1-(6-(trifluoromethoxy)indolin-1-yl)ethanone]
CC50 (in vitro): 17000 nM
EC50 (DENV-2 16681 strain): 280 nM

COc1cc(NC(C(=O)N2CCc3cc(OC)c(C(F)(F)F)cc32)c2ccc(Cl)cc2OC)cc(OCCO)c1 (single isomer, unassigned) [Compound 11A, 2-(4-chloro-2-methoxyphenyl)-2-((3-(2-hydroxyethoxy)-5-methoxyphenyl)amino)-1-(5-methoxy-6-(trifluoromethyl)indolin-1-yl)ethanone]
CC50 (in vitro): > 25000 nM
EC50 (DENV-2 16681 strain): 330 nM

COc1cc(NC(C(=O)N2CCc3cc(OC)c(OC(F)(F)F)cc32)c2ccc(Cl)cc2)cc(OCCO)c1 (single isomer, unassigned) [Compound 13B, 2-(4-chlorophenyl)-2-((3-(2-hydroxyethoxy)-5-methoxyphenyl)amino)-1-(5-methoxy-6-(trifluoromethoxy)indolin-1-yl)ethanone]
CC50 (Vero cells): > 25000 nM
EC50 (DENV-2 16681 strain): 280 nM
